# Literature values as cited in US5331009A, “Pharmaceutical compositions for treating adrenoleukodystrophy” (Croda International plc, priority 1988, dated 1994).
# Tested on: ALD patients
Structure (SMILES),"C26:0 body levels (very long chain fatty acids omitted from diet, glyceryl trioleate used alone)","therapeutic benefit of administration to ALD patients (Rizzo, Neurology 36 (1986) 357, Moser, Ann. Neurol. 21, 1987)"
CCCCCCCC/C=C\CCCCCCCC(=O)OCC(COC(=O)CCCCCCC/C=C\CCCCCCCC)OC(=O)CCCCCCC/C=C\CCCCCCCC [glyceryl trioleate],reductions can occur,
"CCCCCCCC/C=C\CCCCCCCC(=O)O [oleic acid (C18:1), oleic acid]",,generally therapeutically advantageous
